# Measurements as given in PMC8795539 (Proceedings of the National Academy of Sciences of the …, 2022).
# T1: SmoB (Atu3278), 6-OG reductase (Agrobacterium fabrum, UniProt A9CEY6)
# T1 sequence (A9CEY6 1-297): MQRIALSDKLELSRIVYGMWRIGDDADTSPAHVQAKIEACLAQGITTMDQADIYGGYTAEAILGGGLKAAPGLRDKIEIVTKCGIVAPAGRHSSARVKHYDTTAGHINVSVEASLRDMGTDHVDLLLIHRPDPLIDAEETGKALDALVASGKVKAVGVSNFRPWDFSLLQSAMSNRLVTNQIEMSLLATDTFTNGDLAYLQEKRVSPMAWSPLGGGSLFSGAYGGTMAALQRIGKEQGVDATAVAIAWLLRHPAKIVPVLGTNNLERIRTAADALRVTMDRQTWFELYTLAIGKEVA
# T2: SmoA (Atu3277), flavin mononucleotide reductase (Agrobacterium fabrum, UniProt Q7CS24)
# T2 sequence (Q7CS24 1-174): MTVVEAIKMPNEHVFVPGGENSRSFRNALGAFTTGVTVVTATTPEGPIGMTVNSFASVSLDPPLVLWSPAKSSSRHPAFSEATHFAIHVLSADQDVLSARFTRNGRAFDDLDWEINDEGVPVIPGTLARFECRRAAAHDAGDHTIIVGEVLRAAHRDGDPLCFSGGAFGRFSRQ
# B1: SmoA (Atu3277), flavin mononucleotide reductase (Agrobacterium fabrum str. C58) (protein)
# chain: T2 sequence (Q7CS24 1-174)
# B2: SmoC (Atu3279), SQ monooxygenase from Agrobacterium tumefaciens C58 (enzyme)
# chain: MTVVPVTSADLDAAEVSWFSALCSDDYAYLGVPDGSLRSSFEHCSDIVKKAEELGFRNILCPSSYQVGQDTLSFVAGCAPISDRINFLAAIRCGEMQPIMLARTVATLDHMLKGRLTLNVISSDFPGEVADSAFRYKRSHEVVEILRQAWTRDTIDHDGEIYQFKGVSTEPARPYQLNGGPLLYFGGYSPDALELCGAQCDVYLMWPETKDQLADRMRAAHERAAAHGRTLDYGLRVHMVVRDTEQEAREYADHLVSKLDDEYGQLIRNRAHDSGSLGVSHQARARELADKFGYVEPNLWTGIGRARSGCGAALVGSTDQVLSALEEYQKMGIRAFILSGYPHLDEAEHFGTKVLPQMKTCSLPHAYGRVPSETPATPLGNGERH
# Key:
# [1] = target: T1, SmoB (Atu3278), 6-OG reductase; test: ITC; type: binding
# [2] = target: T2, SmoA (Atu3277), flavin mononucleotide reductase; test: copurification, LC-MS of heat-released flavin; type: binding
# [3] = substrate: NC(=O)C1=CN([C@@H]2O[C@H](COP(=O)(O)OP(=O)(O)OC[C@H]3O[C@@H](n4cnc5c(N)ncnc54)[C@H](O)[C@@H]3O)[C@@H](O)[C@H]2O)C=CC1; test: purified protein; settings: FMN
# [4] = target: the molecule itself; test: SEC-MALS
molecule,measurement,setting,value
NC(=O)C1=CN([C@@H]2O[C@H](COP(=O)(O)OP(=O)(O)OC[C@H]3O[C@@H](n4cnc5c(N)ncnc54)[C@H](OP(=O)(O)O)[C@@H]3O)[C@@H](O)[C@H]2O)C=CC1 [NADPH],Kd,[1],~2000 nM
Cc1cc2nc3c(=O)[nH]c(=O)nc-3n(C[C@H](O)[C@H](O)[C@H](O)COP(=O)(O)O)c2cc1C [FMN],"copurification, LC-MS of heat-released flavin",[2],to reveal that flavin mononucleotide (FMN) was the sole detectable flavin
B1,Km,[3],35 ± 5 µM
B2,stoichiometry N,[4],2
